Test results from patent publication US4545993A, “1,2-Benzopyran-6-yl acetic acid compound and pharmaceutical compositions containing said compounds” (priority 1981, dated 1985).

How the values were obtained:
[1] = tested on: stretching after acetic acid (male dd mice); test: Analgesic effects by acetic acid writhing test; format: in vivo; details: oral, 0.6% acetic acid i.p.
Method: Thirty minutes after the examined drug was orally given, 0.1 ml/10 g of 0.6% acetic acid was intraperitoneally administered to groups of 10 male dd mice weighing some 18 g. The number of stretching was calculated during an observation period of 15 to 20 minutes after acetic acid treatment. The average inhibition rate of stretching among 8 animals was regarded as the inhibition rate of the drug, excluding 2 animals showing maximum and minimum numbers of stretching.

[2] = tested on: pseudopain reactions (dd mice); test: Analgesic effects by a modified Haffner method; format: in vivo; details: oral, with 2 mg/Kg morphine hydrochloride s.c.
Method: Groups of 10 dd mice were orally administered the examined drugs and 30 minutes later 2 mg/Kg of morphine hydrochloride, the threshhold dose, was subcutaneously injected. At 15, 30, 45 and 60 minute intervals thereafter, the root of the mouse's tail was squeezed with a Kocher's forcepts.

[3] = Acute toxicity, oral, number of deaths up to 72 hours; details: mouse, in vivo
Method: Groups of 10 male dd mice weighing some 18 g, were orally administered 800 mg/Kg of each of the examined drugs and the number of deaths up to 72 hours later was recorded.

[4] = 800 mg/Kg, oral, male dd mice, up to 72 hours

| Compound | Analgesic effects (acetic acid writhing test; average inhibition rate of stretching) ([1]; 50 mg/Kg) [%] | Analgesic effects (acetic acid writhing test; average inhibition rate of stretching) ([1]; 100 mg/Kg) [%] | Analgesic effects (modified Haffner method) ([2]; 50 mg/Kg) [%] | Analgesic effects (modified Haffner method) ([2]; 100 mg/Kg) [%] | mortality at 72 h [3, 4] [%] | mortality at 72 h ([3]; po, 800 mg/kg) [%] |
| --- | --- | --- | --- | --- | --- | --- |
| Cc1c(N(C)C)c(=O)n(-c2ccccc2)n1C [Aminopyrine, reference compound] | 18 | 57 | 20 | 55 | 80 |  |
| CC(C(=O)O)c1cc(F)c2c(c1)C=CC(C)(C)O2 (centres unmarked) [Compound 1, 2-(2,2-dimethyl-8-fluoro-1,2-benzopyran-6-yl)propionic acid] | 59 | 76 | 40 | 70 | 0 |  |
| CC(C(=O)O)c1ccc2c(c1)C=CC(C)(C)O2 (centres unmarked) [Compound 2, 2-(2,2-Dimethyl-1,2-benzopyran-6-yl)propionic acid] | 44 | 76 | 25 | 50 | 0 |  |
| CC(C(=O)O)c1cc(Cl)c2c(c1)C=CC(C)(C)O2 (centres unmarked) [Compound 3, 2-(2,2-Dimethyl-8-chloro-1,2-benzopyran-6-yl)propionic acid] |  |  | 20 | 65 | 0 |  |
| CC(C(=O)O)c1cc(Cl)c2c(c1)C=CCO2 (centres unmarked) [Compound 4, 2-(8-Chloro-1,2-benzopyran-6-yl)propionic acid] | 36 | 61 | 30 | 55 | 30 |  |
| O=C(O)Cc1cc(Cl)c2c(c1)C=CCO2 [Compound 5, (8-Chloro-1,2-benzopyran-6-yl)acetic acid] |  |  | 35 | 70 |  |  |
| CC(C(=O)O)c1cc(Cl)c2c(c1)CCC(C)(C)O2 (centres unmarked) [Compound 6, 2-(2,2-dimethyl-8-chlorochroman-6-yl)propionic acid] | 27 | 68 | 30 | 60 | 30 |  |
| CC(C(=O)O)c1cc(Cl)c2c(c1)CCCO2 (centres unmarked) [Compound 7, 2-(8-Chlorochroman-6-yl)propionic acid] |  |  |  |  | 0 |  |
| CCCCC1C(=O)N(c2ccccc2)N(c2ccccc2)C1=O [Phenylbutazone, reference compound] |  |  |  |  |  | 60 |
